Patent US8148360B2, “Supramolecular metallic complexes exhibiting both DNA binding and photocleavage” (Virginia Tech Intellectual Properties, Inc., priority 2006, dated 2012)

Columns and labels:
[1] = tested on: pUC18 circular plasmid DNA; assay: DNA binding by agarose gel electrophoresis (migration shift of plasmid); conditions: for DNA binding: 10:1 metal complex:DNA base pair, with and without O2
From the text: (§1) FIG. 6. DNA binding and photocleavage by [{(bpy)2Ru(dpp)}2Ru(dpp)PtCl2](PF6)6 (Ru3Pt) assayed with 0.8% agarose gel electrophoresis post stained with ethidium bromide using circular plasmid pUC18 DNA with comparison to cis-[Pt(NH3)2Cl2] (Cisplatin) and [{(bpy)2Ru(dpp)}2Ru(dpp)](PF6)6 (Ru3) (bpy=2,2′-bipyridine, dpp=2,3-bis(2-pyridyl)pyrazine). Lanes λ are the molecular weight standards (23, 9.4, 6.6, 4.4, 2.3, and 2.0 kb), lanes C are the DNA controls showing mostly form I and minor form II pUC18 DNA. The cisplatin lane 1 is a 5:1 base pair (BP):metal complex (MC) and lane 2 a 20:1 BP:MC incubated for 1 hour at 37° C. The Ru3 lane 1 is a 20:1 BP:MC incubated for 1 hour at 37° C. The Ru3Pt lane 1 is 20:1 BP:MC kept in the dark at room temperature, lane 2 is 20:1 BP:MC incubated for 1 hour in the dark at 37° C., lane 3 is 20:1 BP:MC photolyzed with 450 nm-1000 nm light for 1 hour under atmospheric conditions, lane 4 is 20:1 BP:MC photolyzed with 450 nm-1000 nm light for 1 hour under argon.
(§2) FIG. 9. DNA binding and photocleavage by [{(bpy)2Ru(dpp)}2Ru(dpq)PtCl2](PF6)6. Lane 1 is the molecular weight standard, lane C is the pUC18 DNA plasmid control, lane 25° is 10:1 metal complex:DNA base pair incubated at 25° C., lane 37° is the 10:1 ratio incubated at 37° C., Ar* is the 10:1 ratio photolyzed for 1 hour under Ar, lane O2* is the 10:1 ratio photolyzed under ambient atmosphere.
as §2, with “10.” for “9.”, “[{(bpy)2Os(dpp)}2Ru(dpq)PtCl2](PF6)6.” for “[{(bpy)2Ru(dpp)}2Ru(dpq)PtCl2](PF6)6.”
(§3) The DNA binding and photocleavage ability of the exemplary complex, [{(bpy)2Ru(dpp)}2Ru(dpp)PtCl2](PF6)6, has been investigated using gel electrophoresis. The cis-dichloroplatinum(II) moiety is designed to allow the complex to bind covalently to DNA. The Ru polyazine units are designed to allow the complex to undergo sensitization of molecular oxygen leading to DNA photocleavage. The presence of the cis-dichloroplatinum(II) sub-unit delivers the Ru polyazine sub-unit to its target prior to optical excitation. DNA interactions of [{(bpy)2Ru(dpp)}2Ru(dpp)PtCl2](PF6)6 were compared to a binding analyses of Ru3 and cisplatin using gel electrophoresis and pUC18 circular plasmid DNA, (2686 BP, Bayou Biolabs) post-stained with ethidium bromide. Lanes λ are the molecular weight standards (23, 9.4, 6.6, 4.4, 2.3, and 2.0 kb). Lanes C are the pUC18 DNA controls, showing primarily the supercoiled (form I) and minor nicked (form II) forms of the circular pUC18 plasmid. The lane 1 for cisplatin is a 5:1 base pairs (BP):metal complex (MC) and lane 2 is a 20:1 BP:MC solution incubated at 37° C. for 1 hr. […] Lane 1 of “Ru3Pt” is the 20:1 DNA BP: MC solution of [{(bpy)2Ru(dpp)}2Ru(dpp)PtCl2](PF6)6 incubated at 37° C. for 1 hr. […] Lane 4 is a 20:1 BP:MC solution photolyzed at λ>450 nm for 1 hour, under argon.
A mixed-metal complex, [{(bpy)2Ru(dpp)}2Ru(dpq)PtCl2](PF6)6, was synthesized using bridging ligands dpq (2,3-bis(2-pyridyl)quinoxaline), and dpp (the ligand described in Example 1). The complex was tested for its ability to bind DNA and to photocleave the DNA in an O2 dependent manner by incubating the complex with DNA in the ambient atmosphere and under argon. […]

[2] = tested on: pUC18 circular plasmid DNA; assay: DNA photocleavage by agarose gel electrophoresis (form I to form II conversion) after visible light photolysis; assay type: biochemical; conditions: for DNA photocleavage: 10:1 ratio; for DNA photocleavage (supercoiled form I to nicked form II): 20:1 BP:MC
From the text: as §1, §2
as §2, with “10.” for “9.”, “[{(bpy)2Os(dpp)}2Ru(dpq)PtCl2](PF6)6.” for “[{(bpy)2Ru(dpp)}2Ru(dpq)PtCl2](PF6)6.”
as §3
A mixed-metal complex, [{(bpy)2Ru(dpp)}2Ru(dpq)PtCl2](PF6)6, was synthesized using bridging ligands dpq (2,3-bis(2-pyridyl)quinoxaline), and dpp (the ligand described in Example 1). The complex was tested for its ability to bind DNA and to photocleave the DNA in an O2 dependent manner by incubating the complex with DNA in the ambient atmosphere and under argon. […] This illustrates the metal complex binds to DNA and photocleaves DNA in a oxygen dependent manner.
A mixed-metal complex, [{(bpy)2Os(dpp)}2Ru(dpq)PtCl2](PF6)6, was synthesized using bridging ligands dpq (2,3-bis(2-pyridyl)quinoxaline), and dpp (as described in Example 3) but using osmium as a light absorbing metal component. […] This illustrates this metal complex also binds to DNA and photocleaves DNA in a oxygen dependent manner.

[3] = photolyzed under ambient atmosphere (O2)

Substance | DNA binding [1] | DNA photocleavage ([2]; photolyzed for 1 hour under Ar) | DNA photocleavage [2, 3] | other results
[{(bpy)2Os(dpp)}2Ru(dpq)PtCl2](PF6)6 | effective in binding to DNA | not in the absence of O2 | cleaved only when O2 was present | 
[{(bpy)2Ru(dpp)}2Ru(dpp)PtCl2](PF6)6 [Ru3Pt] |  |  |  | DNA binding (migration of pUC18 through the gel) ([1]; Ru3Pt lane 1, 20:1 BP:MC, b60 prints incubated at 37° C. for 1 hr, FIG. 6 legend prints kept in the dark at room temperature): decreased migration of the form I pUC18 through the gel; DNA photocleavage (supercoiled form I to nicked form II) ([2]; photolyzed λ>450 nm for 1 hour, under argon): no DNA photocleavage is observed; DNA photocleavage (supercoiled form I to nicked form II) ([2]; photolyzed λirr>450 nm for 1 hour, under atmospheric conditions): appreciable conversion of the supercoiled (form 1) to nicked (form II) DNA
[{(bpy)2Ru(dpp)}2Ru(dpp)](PF6)6 [Ru3, reference compound] |  |  |  | DNA binding (migration of pUC18 through the gel) ([1]; 20:1 BP:MC, incubated at 37° C. for 1 hr): migration of the DNA is not impacted
[{(bpy)2Ru(dpp)}2Ru(dpq)PtCl2](PF6)6 | effective in binding to DNA | not in the absence of O2 | cleaved only when O2 was present | 
cis-[Pt(NH3)2Cl2] [cisplatin, reference compound] |  |  |  | DNA binding (migration of pUC18 through the gel) ([1]; 5:1 and 20:1 BP:MC, incubated at 37° C. for 1 hr): migration of form I of the pUC18 is retarded
